The record followed here is ChEMBL document CHEMBL1149805, “Antibacterial activity of a novel series of 3-bromo-4-(1H-3-indolyl)-2,5-dihydro-1H-2,5-pyrroledione derivatives--an extended structure-activity relationship study” (Eur J Med Chem, 2008).

Values after ≈ are worked out from the molar mass of the structure shown. Active and inactive are the calls of the source. No rule for the calls is given here.

What is called logP is the decadic logarithm of the partition coefficient of the neutral form, usually between octanol and water. By MIC is commonly meant the least concentration at which growth counts as inhibited. The low end stands for a more susceptible organism, the high end for a less susceptible organism.

Series [1] is described as follows: Partition coefficient, log P of the compound. The series is classed as physicochemical. The following applies: octanol/water.
For a further series, the system named is Staphylococcus aureus. Put plainly: Antibacterial activity against Staphylococcus aureus 134/93 after 24 hrs by broth microdilution method. The following applies: for MIC: Staphylococcus aureus, 134/93, 24 h. The series is classed as functional.
Series [2] relates to Mycolicibacterium smegmatis. Description: Antibacterial activity against Mycobacterium smegmatis SG987 after 24 hrs by broth microdilution method. The following applies: for MIC: Mycolicibacterium smegmatis, SG987, 24 h. The series is classed as functional. (Dilution methods test growth across graded concentrations, often in twofold steps.)
In another series the test system is Candida albicans. Description: Antibacterial activity against Candida albicans after 24 hrs by broth microdilution method. The format is functional, organism-based.
A further series has as its system Escherichia coli. Description: Antibacterial activity against Escherichia coli after 24 hrs by broth microdilution method. The series is classed as functional, organism-based.

`Cc1ccc2[nH]c(-c3ccccc3)c(C3=C(Br)C(=O)NC3=O)c2c1` yielded a logP in series [1] of 2.88. Also, the “-logMIC” value was found to be 6.9 in the series with Staphylococcus aureus and 5.4 in series [2]. Also, the MIC was determined as 0.13 µM (≈ 0.0496 µg/mL) with Staphylococcus aureus and 4.1 µM (≈ 1.56 µg/mL) in series [2]. Moreover, the result in the series with Candida albicans and in the series on Escherichia coli was inactive.

As for `O=C1NC(=O)C(c2c(-c3ccc(OCc4ccccc4)cc3)[nH]c3ccccc23)=C1Br`, the logP in series [1] was 3.3. The results for the “-logMIC” value (in the series on Staphylococcus aureus; in series [2]) were 6.7 and 4.6, respectively. Moreover, the values for the MIC (against Staphylococcus aureus; in series [2]) were 0.21 µM (≈ 0.0994 µg/mL) and 25.1 µM (≈ 11.9 µg/mL), respectively. For the same compound, the outcome in the series on Candida albicans and in the series with Escherichia coli was inactive.

On to `CCOc1ccc2[nH]c(-c3ccccc3)c(C3=C(Br)C(=O)NC3=O)c2c1`, for which the logP in series [1] came to 2.77. Also, the “-logMIC” value was found to be 5.4 with Staphylococcus aureus and 4.5 in series [2]. Further, the MIC against Staphylococcus aureus came to 3.8 µM (≈ 1.56 µg/mL); in series [2] it was 30.4 µM (≈ 12.5 µg/mL). In addition, the outcome with Candida albicans and in the series with Escherichia coli was inactive.

With `CCCCCCc1ccc2[nH]c(-c3cccc(OC)c3)c(C3=C(Br)C(=O)NC3=O)c2c1`, the logP in series [1] was 4.26. Moreover, the entries for the “-logMIC” value (in the series with Staphylococcus aureus; in series [2]) were 4.6 and 5.2, respectively. The values for the minimal inhibitory concentration (MIC) (against Staphylococcus aureus; in series [2]) were 26 µM (≈ 12.5 µg/mL) and 6.31 µM (≈ 3.04 µg/mL), respectively. Moreover, the result in the series with Candida albicans and with Escherichia coli was inactive.

On to `CCc1ccc2[nH]c(-c3cccc(OC)c3)c(C3=C(Br)C(=O)NC3=O)c2c1`, for which the logP in series [1] was 3.35. The “-logMIC” value in the series with Staphylococcus aureus was found to be 6.3; in series [2] it was 5.4. For the same compound, the MIC was 0.5 µM (≈ 0.213 µg/mL) in the series on Staphylococcus aureus and 3.98 µM (≈ 1.69 µg/mL) in series [2]. The result in the series on Candida albicans and with Escherichia coli was inactive.

In series [1], `CCCCOc1ccc(-c2[nH]c3ccccc3c2C2=C(Br)C(=O)NC2=O)cc1` returned a logP of 3.87. The “-logMIC” value with Staphylococcus aureus is recorded as 6.3; in series [2], 4.8. The MIC amounted to 0.45 µM (≈ 0.198 µg/mL) in the series with Staphylococcus aureus and 15.8 µM (≈ 6.96 µg/mL) in series [2]. For the same compound, the outcome with Candida albicans and in the series on Escherichia coli was inactive.

Compound `CCCCCc1ccc2[nH]c(-c3ccccc3)c(C3=C(Br)C(=O)NC3=O)c2c1` returned a logP in series [1] of 4.07. Further, the “-logMIC” value in the series on Staphylococcus aureus worked out at 6; in series [2] it was 5.5. In addition, the MIC in the series on Staphylococcus aureus is 0.91 µM (≈ 0.398 µg/mL); in series [2] it was 3.6 µM (≈ 1.57 µg/mL). Further, the outcome with Candida albicans and in the series with Escherichia coli was inactive.

For the compound `CCc1ccc2[nH]c(-c3ccccc3)c(C3=C(Br)C(=O)NC3=O)c2c1`, the logP in series [1] was determined as 3.15. Besides, the “-logMIC” value with Staphylococcus aureus amounted to 6.9; in series [2] it was 5.4. The results for the MIC (against Staphylococcus aureus; in series [2]) were 0.13 µM (≈ 0.0514 µg/mL) and 4 µM (≈ 1.58 µg/mL), respectively. Moreover, the outcome with Candida albicans and with Escherichia coli was inactive.

`CCCCc1ccc2[nH]c(-c3ccccc3)c(C3=C(Br)C(=O)NC3=O)c2c1` gave a logP in series [1] of 3.74. Besides, the figures for the “-logMIC” value (with Staphylococcus aureus; in series [2]) were 6.6 and 5.7, respectively. The MIC stood at 0.24 µM (≈ 0.102 µg/mL) in the series with Staphylococcus aureus and 1.9 µM (≈ 0.804 µg/mL) in series [2]. The outcome in the series on Candida albicans and in the series on Escherichia coli was inactive.

In series [1], `COc1ccc(-c2[nH]c3ccc(C)cc3c2C2=C(Br)C(=O)NC2=O)cc1` came in with a logP of 2.85. Further, the “-logMIC” value in the series with Staphylococcus aureus is reported as 6.9; in series [2], 5.1. The minimal inhibitory concentration (MIC) with Staphylococcus aureus was found to be 0.12 µM (≈ 0.0494 µg/mL); in series [2], 7.6 µM (≈ 3.13 µg/mL). Besides, the outcome with Candida albicans and in the series with Escherichia coli was inactive.

In series [1], `O=C(CCCCc1[nH]c2ccccc2c1C1=C(Br)C(=O)NC1=O)Nc1ccccc1` showed a logP of 2.56. For the same compound, the “-logMIC” value in the series on Staphylococcus aureus worked out at 5.8; in series [2] it was 4.6. For the same compound, the MIC is 1.7 µM (≈ 0.793 µg/mL) in the series with Staphylococcus aureus and 26 µM (≈ 12.1 µg/mL) in series [2]. For the same compound, the outcome in the series on Candida albicans and with Escherichia coli was inactive.
